In patent US5573922A, “Immunological detection method for triazines” (Boehringer Mannheim GmbH, priority 1993, dated 1996):

What was measured:
[1] = test system: antiserum S 4612 (sheep antiserum against triazine); test: Competitive ELISA, sheep triazine antiserum with homologous POD conjugate atra(terbutyl-6ah)-OSu-POD; assay type: binding; settings: 30 mU/ml; for lower detection limit (ng/l) / lower detection limit: concentration at which signal is 80% of maximum signal; for cross reaction (%): relative to terbutylazine (quotient of hapten concentrations at half maximum signal)
Description: (§1) Microtitre plates (Maxisorp F96,Nunc Co. Order No. 4-42404) are coated with antibodies against the Fc part of sheep IgG which have been obtained by immunosorptive purification of the IgG fraction from donkey antiserum. The donkey antibody is dissolved in the coating buffer at a concentration of 10 µg/ml protein and 100 μl of this solution is pipetted into each well of the microtitre plate. After incubating for 1 hour at room temperature while shaking, the solution is discarded and the plate is washed three times with washing solution.
(§2) Sheep antiserum against triazine is diluted 1:50,000 with incubation buffer. Each well of the microtitre plate is coated with 100 μl of the diluted solution. During the incubation period (1 hour, conditions as above) the IgG molecules from the sheep serum bind to the donkey antibodies bound to the wall. They are subsequently washed as above.
(§3) The wells of the microtitre plate which were precoated as previously described, are filled with these solutions (100 μl in each case), incubated for 1 hour and subsequently washed as described.
(§4) The free hapten molecules compete with the hapten-POD conjugate for the limited amount of hapten-specific antibodies on the wall of the wells. The less conjugate is bound the more free hapten is present in the solution and the better the hapten is recognized by the antibodies.
(§5) Every well is filled with 100 μl substrate solution and incubated while shaking until the colour development in the samples without hapten appears subjectively to be high enough. Then the absorbance in all wells is determined as a differential measurement at the wavelengths 405/492 nm.
(§6) In the graph of the measured signal as a function of the hapten concentration used, the "relative affinity", i.e. the hapten concentration whose measured signal is half the size of the maximum signal (at a hapten concentration of 0), is determined for each triazine compound. In this process a linear interpolation is made between selected measurement points on the curve. This gives the cross-reaction of the triazines in relation to terbutylazine as the quotient [formula]
(§7) The "lower limit of detection" is determined in an analogous manner for each triazine compound as the concentration at which the measured signal is 80% of the maximum signal.
In a second experiment the cross reaction and the lower limit of detection for each of the above-mentioned triazines is determined in an analogous manner using the homologous conjugate atra(terbutyl-6ah)-OSu-POD. In this case the POD concentration is 30 mU/ml. The highest hapten concentrations are 10,000 ng/l for terbutylazine and 100,000 ng/l for all triazines.
Eight further hapten concentrations are prepared by serial dilution of these solutions in a ratio of 1:2 and a blank value without triazine is determined in each case.

[2] = test system: antiserum S 4612 (sheep antiserum against triazine); test: Competitive ELISA, sheep triazine antiserum with heterologous POD conjugate atra(deethyl-4-ED)-SATP-PODp(MH); assay type: binding; settings: 50 mU/ml; for lower detection limit: concentration at which signal is 80% of maximum signal; for cross reaction (%): relative to terbutylazine (quotient of hapten concentrations at half maximum signal)
Description: 10 sheep are immunized with triazine immunogen according to example 1 in Freund's adjuvant. The dose is […] per animal. The immunizations are repeated over six months or longer, each at intervals of 4 weeks. Antiserum samples are taken from all animals once per month and examined for the presence of triazine antibodies. For this purpose a series of terbutylazine standards are measured in a competitive ELISA using the heterologous POD conjugate atra(deethyl-4-ED)-SATP-POD(MH) according to example 3. The procedure for this measurement is described in detail in example 5.
as §1, §2
A series of solutions is prepared which contain terbutylazine at concentrations of 1000/500/250/125/62.5/31/16/8/4/0 ng/l as well as the conjugate atra(deethyl-4-ED)-SATP-PODp(MH) according to the invention at a standard concentration of 50 mU/ml in the incubation buffer.
Dilution series of other triazines are prepared in a similar manner with maximum concentrations of […] (atrazine, cyanazine and desethylterbutylazine), 10,000 ng/l (propazine, simazine, desethylatrazine) and 100,000 ng/l (desisopropylatrazine) and dilution steps of 1:2 which also contain the said hapten-POD conjugate.
as §3, §4, §5, §6, §7

Compound | lower detection limit (ng/l) [1] | cross reaction (%) [1] [%] | lower detection limit [2] [ng/L] | cross reaction (%) [2] [%] | lower detection limit [1] [ng/L]
CCNc1nc(Cl)nc(NC(C)C)n1 [atrazine] | 1,600 ng/l | 4 | 17 | 73 | –
CCNc1nc(Cl)nc(NC(C)(C)C#N)n1 [cyanazine] | – | 11 | 10 | 102 | 310
CC(C)Nc1nc(N)nc(Cl)n1 [desethylatrazine] | 9,500 ng/l | < 0.3 | 90 | 7 | –
CC(C)(C)Nc1nc(N)nc(Cl)n1 [desethylterbutylazine] | – | 9 | 10 | 102 | 430
CC(C)Nc1nc(Cl)nc(NC(C)C)n1 [propazine] | – | 8 | 24 | 26 | 620
CCNc1nc(Cl)nc(NCC)n1 [simazine] | – | 0.9 | 60 | 10 | 4.100
CCNc1nc(Cl)nc(NC(C)(C)C)n1 [terbutylazine] | – | 100 | 12 | 100 | 100
